According to patent US11466007B2, “Substituted lactams showing serotonin 5-HT receptor activity” (Sumitomo Pharma Co., Ltd., priority 2018, dated 2022):
Like-named read-outs stand apart in the source and are kept apart here.

Key:
[1] = Test 4: metabolic stability test in human hepatic microsome; format: in vitro ADME; details: 0.1 mg/mL microsome, 0.1 μmol/L compound, NADPH, 37° C., 30 minutes
Method in brief: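 Test compound at 0.1 μmol/L incubated 30 min at 37° C with human liver microsomes (0.1 mg/mL) and NADPH (3.2 mmol/L) in 25 mmol/L phosphate buffer, pH 7.4. Residual compound quantified by LC-MS; clearance (mL/min/mg protein) = −LN(residual ratio)/30/0.1.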

[2] = biological target: T1, human 5-HT2A receptor (Homo sapiens (Human), UniProt P28223); test: Test 1: binding activity for human 5-HT2A receptor ([3H]Ketanserin); details: CHO cell membrane fraction
T1 sequence (P28223 whole entry): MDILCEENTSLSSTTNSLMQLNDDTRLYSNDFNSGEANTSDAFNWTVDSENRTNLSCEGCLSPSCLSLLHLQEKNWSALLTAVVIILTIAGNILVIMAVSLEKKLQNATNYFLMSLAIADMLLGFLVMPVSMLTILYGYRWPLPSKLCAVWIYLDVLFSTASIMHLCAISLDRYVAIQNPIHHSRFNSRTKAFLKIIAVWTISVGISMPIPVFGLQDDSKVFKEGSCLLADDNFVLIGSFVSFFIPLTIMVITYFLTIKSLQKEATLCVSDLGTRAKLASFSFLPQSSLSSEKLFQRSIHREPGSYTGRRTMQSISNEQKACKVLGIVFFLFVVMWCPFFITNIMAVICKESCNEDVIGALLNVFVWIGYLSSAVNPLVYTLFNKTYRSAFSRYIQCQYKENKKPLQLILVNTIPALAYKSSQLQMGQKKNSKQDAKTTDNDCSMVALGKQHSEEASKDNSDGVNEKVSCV
Protocol: (§1) Test 1: Evaluation of Binding Activity for Human 5-HT1A Receptor, Human 5-HT2A Receptor, and Human D2 Receptor
(§2) Binding affinity of the present compound for human 5-HT1A receptor, human 5-HT2A receptor, and human D2 receptor was measured by the following procedures.
(§3) Each mixture was incubated at room temperature for 60 minutes. Then, the mixture was added quickly on a glassfiber filter plate (Multiscreen FB, Millipore, Inc.) coated with 0.3% aqueous polyethylenimine, and vacuum-filtered. Radioactivity remaining on the filter was measured with a liquid scintillation counter (PerkinElmer, Inc.). Binding inhibition rate was calculated from the following formula.
(§4) Ki of each compound was calculated from the following formula. Binding inhibition constant (Ki)=IC50/(1+S/Kd) wherein S is concentration of ligand; Kd is a binding dissociation constant of ligand to membrane, which is calculated from a saturated binding experiment conducted with the same cell membrane. A small Ki value means strong binding ability to a receptor.

[3] = biological target: T2, human 5-HT1A receptor (Homo sapiens (Human), UniProt P08908); test: Test 2: agonist activity for human 5-HT1A receptor ([35S]GTPγS binding); format: biochemical; details: for Emax at 10 µM: agonist activity in the presence of 10 μM compound, relative to 100 μmol/L 5-HT; for EC50: [35S]GTPγS binding, CHO cell membrane fraction expressing human 5-HT1A receptor
T2 sequence (P08908 whole entry): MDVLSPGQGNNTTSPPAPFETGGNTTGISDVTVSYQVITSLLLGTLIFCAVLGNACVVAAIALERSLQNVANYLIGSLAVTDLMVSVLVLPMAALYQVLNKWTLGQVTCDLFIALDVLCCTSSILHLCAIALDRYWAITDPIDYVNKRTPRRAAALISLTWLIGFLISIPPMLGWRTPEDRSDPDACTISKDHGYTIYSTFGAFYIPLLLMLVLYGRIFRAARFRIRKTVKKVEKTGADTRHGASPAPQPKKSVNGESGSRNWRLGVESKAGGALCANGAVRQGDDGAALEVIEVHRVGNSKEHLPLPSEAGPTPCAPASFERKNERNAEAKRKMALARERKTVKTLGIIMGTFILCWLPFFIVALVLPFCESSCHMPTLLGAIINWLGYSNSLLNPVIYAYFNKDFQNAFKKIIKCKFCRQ
Protocol: Test 2: Evaluation of Agonist Activity for Human 5-HT1A Receptor
CHO cell membrane fraction in which human 5-HT1A receptor was expressed as used in Test 1 was purchased. To a buffer containing guanosine diphosphate were added a test compound dissolved in DMSO, each receptor membrane sample diluted with buffer, and [^35S] Guanosine 5′-O-[gamma-thio]triphosphate (GTPγS). The mixture was incubated at room temperature for 60 minutes. Then, the mixture was added quickly on a glassfiber filter plate (Multiscreen FB, Millipore, Inc.), and vacuum-filtered. Radioactivity remaining on the […] was measured with a liquid scintillation counter. Agonist activity was calculated from the following formula.

[4] = biological target: hERG channel (Homo sapiens (Human), UniProt Q12809); test: Test 6-1: inhibitory activity for hERG channel (auto patch clamp, Qpatch); format: cell-based; details: for IC50: hERG-CHO cells, whole cell patch clamp, Qpatch, read-out: hERG inhibition IC50
Sequence of hERG channel (Q12809 whole entry): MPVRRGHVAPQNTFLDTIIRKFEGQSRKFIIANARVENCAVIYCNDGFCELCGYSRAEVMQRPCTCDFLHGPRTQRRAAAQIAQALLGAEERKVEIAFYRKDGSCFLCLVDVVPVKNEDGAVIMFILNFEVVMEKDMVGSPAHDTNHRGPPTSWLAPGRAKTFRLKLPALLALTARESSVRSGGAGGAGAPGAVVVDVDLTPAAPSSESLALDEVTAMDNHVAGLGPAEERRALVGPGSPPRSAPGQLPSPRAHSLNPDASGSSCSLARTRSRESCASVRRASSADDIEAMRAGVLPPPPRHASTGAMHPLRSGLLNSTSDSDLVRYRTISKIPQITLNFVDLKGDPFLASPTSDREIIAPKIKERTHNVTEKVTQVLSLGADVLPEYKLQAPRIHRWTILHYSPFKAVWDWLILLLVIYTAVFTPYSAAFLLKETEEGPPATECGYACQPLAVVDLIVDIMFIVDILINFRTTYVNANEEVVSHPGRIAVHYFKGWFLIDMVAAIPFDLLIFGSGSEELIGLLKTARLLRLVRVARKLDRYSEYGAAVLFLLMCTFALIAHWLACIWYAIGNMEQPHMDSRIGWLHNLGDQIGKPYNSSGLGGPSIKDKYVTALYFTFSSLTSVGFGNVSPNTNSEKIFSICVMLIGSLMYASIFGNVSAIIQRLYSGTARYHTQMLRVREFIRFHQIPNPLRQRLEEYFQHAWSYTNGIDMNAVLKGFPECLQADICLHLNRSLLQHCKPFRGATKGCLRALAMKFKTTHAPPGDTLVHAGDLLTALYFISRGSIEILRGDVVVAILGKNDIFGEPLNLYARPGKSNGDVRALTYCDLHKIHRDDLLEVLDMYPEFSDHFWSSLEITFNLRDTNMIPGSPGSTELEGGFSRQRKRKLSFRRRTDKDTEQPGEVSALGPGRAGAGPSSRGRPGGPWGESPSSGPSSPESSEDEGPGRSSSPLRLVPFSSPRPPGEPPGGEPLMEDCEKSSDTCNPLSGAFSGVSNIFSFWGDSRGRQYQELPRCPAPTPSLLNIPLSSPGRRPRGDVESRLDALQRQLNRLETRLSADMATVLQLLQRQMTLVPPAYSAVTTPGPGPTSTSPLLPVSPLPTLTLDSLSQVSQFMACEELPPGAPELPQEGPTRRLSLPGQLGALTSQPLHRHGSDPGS
Protocol: Test 6-1: Evaluation of Inhibitory Activity for hERG Channel
Inhibitory activity of the present compound for hERG channel was measured by whole cell patch clamp method with an auto patch clamp system using CHO cells in which hERG channel involved in human rapidly activating delayed rectifier potassium current (IKr) was forcibly expressed.
hERG-CHO cells purchased from ChanTest Cop. were cultured in a CO2 incubator at 37° C., and dissociated from a flask with trypsin shortly before the measurement of hERG current, to prepare a cell suspension.
Extracellular and intracellular fluid used in the measurement were prepared as follows.
Extracellular fluid: 2 mmol/L CaCl2, 1 mmol/L MgCl2, 10 mmol/L HEPES, 4 mmol/L KCl, 145 mmol/L NaCl, 10 mmol/L Glucose
Intracellular fluid: 5.4 mmol/L CaCl2, 1.8 mmol/L MgCl2, 10 mmol/L HEPES, 31 mmol/L KOH, 10 mmol/L EGTA, 120 mmol/L KCl, 4 mmol/L Na2-ATP
Test compound solution: Test compound was dissolved in DMSO to reach the concentration of 2 mmol/L or 20 mmol/L, in order to prepare a test compound solution. […] (Measurement of Current Value and Data Analysis)
The cell suspension, the extracellular fluid, the intracellular fluid, and the measurement plate were set in the auto patch clamp system, and hERG current was measured by whole cell patch clamp method. […] Each pulse interval was 15 seconds. The data analysis was carried out with Qpatch Assay Software (Biolin Scientific). The test was carried out by applying incrementally 4 concentrations of each test compound, and the average of the maximum peak tail currents which were obtained from the last 3 stimulations in each concentration was determined as the evaluated data. Based on the current inhibition rate for a pre-applied current at each concentration of each test compound, IC50 value was calculated by Hill equation with the software.

[5] = biological target: human D2 receptor (Homo sapiens (Human), UniProt P14416); test: Test 1: binding activity for human D2 receptor ([3H]Spiperone); details: for Ki: CHO cell membrane fraction, [3H]Spiperone; for D2 Ki/5-HT1A Ki: ratio of D2 Ki to 5-HT1A Ki; for D2 Ki/5-HT2A Ki: ratio of D2 Ki to 5-HT2A Ki
Sequence of human D2 receptor (P14416 whole entry): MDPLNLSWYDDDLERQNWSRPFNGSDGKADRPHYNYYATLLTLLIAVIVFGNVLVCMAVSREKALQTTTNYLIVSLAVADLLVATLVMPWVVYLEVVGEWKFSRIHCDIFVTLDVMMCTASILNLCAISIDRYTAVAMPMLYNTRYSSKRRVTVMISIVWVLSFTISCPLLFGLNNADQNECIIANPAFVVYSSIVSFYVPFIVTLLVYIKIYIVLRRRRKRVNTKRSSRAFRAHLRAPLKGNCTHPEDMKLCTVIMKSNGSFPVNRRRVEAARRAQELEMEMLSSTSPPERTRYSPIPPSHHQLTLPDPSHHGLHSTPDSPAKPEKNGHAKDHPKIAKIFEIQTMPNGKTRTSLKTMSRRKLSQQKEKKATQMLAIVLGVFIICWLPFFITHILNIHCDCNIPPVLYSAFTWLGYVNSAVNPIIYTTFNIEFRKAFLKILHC
Protocol: as §1, §2, §3, §4

[6] = biological target: T2, human 5-HT1A receptor; test: Test 1: binding activity for human 5-HT1A receptor ([3H]8-OH-DPAT); details: CHO cell membrane fraction
Protocol: as §1, §2, §3
as §4, with “IC50 value was calculated by Hill analysis (Physiology, 1910, 40, 190-200). Ki of” for “Ki of”

[7] = Test 10: intracerebral transferability of rats (Kp,uu,brain); format: in vivo, SD or WKY rats; details: rat, brain and plasma, unbound drug concentration ratio brain/plasma, s.c. or oral, 0.5, 1 or 2 hours
Protocol: Test 10: Evaluation of Intracerebral Transferability (Test for Intracerebral Transferability of Rats)
In this test, intracerebral transferability of the present compounds was evaluated by the following method. The present compounds were subcutaneously administered as a solution in saline, or orally administered as a suspension in methyl cellulose to 7-week-old SD or WKY rats. Plasma and brain were collected on 0.5 hours, 1 hour, or 2 hours after the administration to measure the drug concentrations in plasma and brain by LC-MS.
Binding rates of the present compound to plasma and brain protein were measured by equilibrium dialysis method.
Kp,uu,brain (unbound drug concentration ratio between brain/plasma) can be calculated by applying the compound concentrations in plasma and brain and the binding rates to plasma and brain protein obtained from the above test into the following formula. Kp,uu,brain=(Compound concentration in brain×(100−Binding rate to brain protein (%))/100)/(Compound concentration in plasma×(100−Binding rate to plasma protein (%))/100)

[8] = biological target: P-gp (MDR1) (Homo sapiens (Human), UniProt P08183); test: Test 9: P-gp substrate property (NFR, MDCKII and MDR1-MDCKII cells); format: in vitro ADME; details: ratio of Papp B-A/Papp A-B in MDR1-MDCKII cells to that in MDCKII cells
Sequence of P-gp (MDR1) (P08183 whole entry, species assumed): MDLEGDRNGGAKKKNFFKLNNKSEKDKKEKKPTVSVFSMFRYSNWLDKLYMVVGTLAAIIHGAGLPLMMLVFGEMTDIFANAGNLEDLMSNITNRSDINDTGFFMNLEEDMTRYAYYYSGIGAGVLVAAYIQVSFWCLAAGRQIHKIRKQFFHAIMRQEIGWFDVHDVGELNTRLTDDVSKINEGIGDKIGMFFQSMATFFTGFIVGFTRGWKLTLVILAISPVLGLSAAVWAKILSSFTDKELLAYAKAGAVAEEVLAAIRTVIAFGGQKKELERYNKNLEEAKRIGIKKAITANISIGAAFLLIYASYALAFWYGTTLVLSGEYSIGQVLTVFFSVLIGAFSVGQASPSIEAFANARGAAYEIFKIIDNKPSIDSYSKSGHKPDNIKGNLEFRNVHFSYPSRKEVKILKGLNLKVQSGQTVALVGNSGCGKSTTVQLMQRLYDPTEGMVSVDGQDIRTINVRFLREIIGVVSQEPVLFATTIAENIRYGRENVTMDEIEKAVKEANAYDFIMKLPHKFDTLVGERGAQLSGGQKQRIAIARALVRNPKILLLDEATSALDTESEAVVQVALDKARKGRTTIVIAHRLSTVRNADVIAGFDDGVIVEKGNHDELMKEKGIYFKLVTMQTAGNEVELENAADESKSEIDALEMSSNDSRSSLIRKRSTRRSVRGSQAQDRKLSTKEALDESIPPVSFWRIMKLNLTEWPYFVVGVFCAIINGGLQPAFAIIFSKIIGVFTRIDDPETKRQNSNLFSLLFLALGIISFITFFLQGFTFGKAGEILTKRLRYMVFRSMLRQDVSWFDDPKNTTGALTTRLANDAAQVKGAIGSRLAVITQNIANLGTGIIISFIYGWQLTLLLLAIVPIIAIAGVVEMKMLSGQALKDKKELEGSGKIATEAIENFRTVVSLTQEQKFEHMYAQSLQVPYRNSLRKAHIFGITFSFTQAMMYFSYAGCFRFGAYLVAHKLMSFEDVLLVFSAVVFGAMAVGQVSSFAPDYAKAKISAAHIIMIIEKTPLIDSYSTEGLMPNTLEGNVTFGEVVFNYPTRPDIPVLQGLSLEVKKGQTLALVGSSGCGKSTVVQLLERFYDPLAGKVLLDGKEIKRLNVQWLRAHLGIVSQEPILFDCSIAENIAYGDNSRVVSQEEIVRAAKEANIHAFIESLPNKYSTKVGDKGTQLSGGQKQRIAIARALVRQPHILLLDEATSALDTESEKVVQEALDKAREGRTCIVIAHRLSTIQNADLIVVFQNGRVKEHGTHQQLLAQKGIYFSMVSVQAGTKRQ
Protocol: Evaluation test for binding was carried out as follows with the CHO cell membrane fraction in which human target receptor was expressed. […] Each mixture was incubated at room temperature, added quickly on a glassfiber filter plate (Multiscreen FB, Millipore, Inc.), and vacuum-filtered. Radioactivity remaining on the filter was measured with a liquid scintillation counter (PerkinElmer, Inc.). Binding inhibition rate was calculated from the following formula.
NFR (Net Flux Ratio), which is an index of P-gp substrate property, can be calculated as follows. MDCKII (Madin-Darby canine kidney strain II) cells and MDR1-MDCKII cells in which MDR1 (multidrug resistance protein 1) was overexpressed were used to measure an apparent permeability coefficient (Papp A-B) from lumen (A) to basement membrane (B) and an apparent permeability coefficient (Papp B-A) from basement membrane (B) to lumen (A) of both MDCKII cells and MDR1-MDCKII cells. NFR (Net Flux Ratio) was calculated from the ratio between Ratio (Papp B-A/Papp A-B) of an apparent permeability coefficient of MDR1-MDCKII cells and Ratio of an apparent permeability coefficient of MDCKII cells.

[9] = biological target: T1, human 5-HT2A receptor; test: Test 3: antagonist activity for human 5-HT2A receptor (aequorin luminescence, CHO-K1 cells); format: cell-based
Protocol: Test 3: Evaluation of Antagonist Activity for Human 5-HT2A Receptor
Aequorin, Gα16 protein, and each receptor were transiently expressed in CHO-K1 cells (Chinese hamster ovary). […] Each compound dissolved in DMSO was added thereto, and changes in luminescence were measured by FDSS/μCELL functional drug screening system (Hamamatsu Photonics K.K.). Antagonist activity was calculated from the following formula.
Antagonist activity (%)=100×{(Luminescence of well in the presence of 1 nmol/L 5-HT−Luminescence of well containing solvent)−(Luminescence of well in the presence of test compound and 1 nmol/L 5-HT−Luminescence of well containing solvent)}/(Luminescence of well in the presence of 1 nmol/L 5-HT−Luminescence of well containing solvent)

| Metabolic stability in human hepatic microsome [1] [mL/min/mg protein] | Kp uu at 2 h [7] | Compound | Ki [2] [nM] | Emax at 10 µM [3] [%] | Ki [5] [nM] | Ki [6] [nM] | other results |
| --- | --- | --- | --- | --- | --- | --- | --- |
| 0.323 |  | Cc1cc2c(cn1)C(=O)N(CCN1CCC(c3noc4ccccc34)CC1)CC21CC1 [Example 21] |  | 59 | 2120 | 8.62 | IC50 ([4]; human, CHO cells expressing hERG channel): 8000 nM |
| <0.01 | 1.44 | Cc1nc2c(o1)C(=O)N(CCN1CCC(c3noc4ccccc34)CC1)CC2 [Example 35, 5-{2-[4-(1,2-Benzoisoxazol-3-yl)piperidin-1-yl]ethyl}-2-methyl-6,7-dihydro[1,3]oxazolo[5,4-c]pyridin-4(5H)-one] |  |  |  |  |  |
| 0.085 | 0.08 | Cn1cc2c(n1)CCN(CCN1CCN(c3nsc4ccccc34)CC1)C2=O [Example 36, 5-{2-[4-(1,2-Benzoisothiazol-3-yl)piperazin-1-yl]ethyl}-2-methyl-2,5,6,7-tetrahydro-4H-pyrazolo[4,3-c]pyridin-4-one] |  |  |  |  | NFR (Net Flux Ratio) [8]: 1.8 |
| <0.01 | 0.18 | Cn1ncc2c1CCCN(CCN1CCC(c3noc4ccccc34)CC1)C2=O [Example 43] |  |  |  |  | NFR (Net Flux Ratio) [8]: 2.2 |
|  |  | Cc1ccc2c(C3CCN(CCn4ccc5cccnc5c4=O)CC3)noc2c1 [Example 118] | 10 | 5 | 276 | 73.1 | D2 Ki/5-HT1A Ki [5]: 3.8; D2 Ki/5-HT2A Ki [5]: 27.6 |
|  |  | O=C1c2ncccc2CCN1CCN1CCC(c2noc3cc(F)c(F)cc23)CC1 [Example 148] |  |  |  |  | 5-HT2A antagonist activity ([9]; at 10 μM): 45% at 10 μM |
| 0.095 |  | COc1ccc2c(n1)C(=O)N(CCN1CCN(c3noc4ccccc34)CC1)CC2 [Example 186] |  | 39 | 1280 | 16.5 | IC50 [4]: 2000 nM; EC50 [3]: 97 nM |

| Compound | Metabolic stability in human hepatic microsome [1] [mL/min/mg protein] | Kp uu at 2 h [7] | Ki [2] [nM] | Emax at 10 µM [3] [%] | Ki [5] [nM] | Ki [6] [nM] | other results |
| --- | --- | --- | --- | --- | --- | --- | --- |
| O=C1c2cnccc2CCN1CCN1CCC(c2noc3ccccc23)CC1 [Example 13] | <0.01 |  | 8.4 | 56 |  |  |  |
| COc1ncc2c(n1)CCN(CCN1CCN(c3noc4ccccc34)CC1)C2=O [Example 179] | <0.05 |  | 22.9 |  | > 10000 | 283 | IC50 [4]: > 10000 nM; hERG inhibition IC50 (nmol/L)/5-HT1A Ki (nmol/L) ([4]; ratio of hERG IC50 to 5-HT1A Ki): >35; hERG inhibition IC50 (nmol/L)/5-HT2A Ki (nmol/L) ([4]; ratio of hERG IC50 to 5-HT2A Ki): >438; D2 Ki/5-HT1A Ki [5]: >35.3; D2 Ki/5-HT2A Ki [5]: >437.6 |
| COc1ccc2c(n1)C(=O)N(CCN1CCC(c3noc4ccccc34)CC1)CC2 [Example 187] | <0.05 |  | 14.5 | 55 |  | 1.59 | IC50 ([9]; CHO-K1 cells, aequorin/Gα16, 1 nmol/L 5-HT): 89.7 nM; EC50 [3]: 38.2 nM |
